The values below come from ChEMBL document CHEMBL1201862, “PubChem BioAssay data set” (2004).

One assay deals with HEK293. Briefly: cells. The following applies: Homo sapiens. Type of assay: functional, cell-based.
The target of assay [1] is T1, Nuclear receptor subfamily 0 group B member 1 (Homo sapiens, UniProt P51843).
T1 sequence (P51843 whole entry): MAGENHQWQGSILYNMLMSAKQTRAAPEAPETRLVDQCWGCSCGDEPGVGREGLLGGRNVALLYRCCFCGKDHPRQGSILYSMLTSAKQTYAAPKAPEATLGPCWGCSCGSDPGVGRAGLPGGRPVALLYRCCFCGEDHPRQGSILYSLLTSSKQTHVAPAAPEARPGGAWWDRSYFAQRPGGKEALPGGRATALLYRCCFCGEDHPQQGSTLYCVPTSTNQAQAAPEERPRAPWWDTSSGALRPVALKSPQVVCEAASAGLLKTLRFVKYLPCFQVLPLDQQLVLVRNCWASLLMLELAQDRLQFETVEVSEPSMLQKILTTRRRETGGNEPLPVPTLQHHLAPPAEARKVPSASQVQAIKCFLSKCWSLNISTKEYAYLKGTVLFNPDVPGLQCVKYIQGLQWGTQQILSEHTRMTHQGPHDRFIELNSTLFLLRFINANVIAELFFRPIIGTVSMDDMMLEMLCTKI
Briefly: Luminescence-based cell-based high throughput dose response assay for inhibitors of the orphan nuclear receptor subfamily 0, group B, member 1 (DAX1; NR0B1). [Related pubchem assays (depositor defined):AID504766, AID504790]. Type of assay: functional.

For another assay, the target named is Ion channel NompC (Danio rerio, UniProt Q7T1G6). Briefly: Fluorescence counterscreen assay for TRPML3 agonists: dose response cell-based high-throughput screening assay to identify agonists of the transient receptor potential channel N1 (TRPN1). [Related pubchem assays: 1526, 1424, 1448 ]. Type of assay: functional. For orientation: Counterscreens check selectivity or assay interference.
Chain of Ion channel NompC (Q7T1G6 whole entry): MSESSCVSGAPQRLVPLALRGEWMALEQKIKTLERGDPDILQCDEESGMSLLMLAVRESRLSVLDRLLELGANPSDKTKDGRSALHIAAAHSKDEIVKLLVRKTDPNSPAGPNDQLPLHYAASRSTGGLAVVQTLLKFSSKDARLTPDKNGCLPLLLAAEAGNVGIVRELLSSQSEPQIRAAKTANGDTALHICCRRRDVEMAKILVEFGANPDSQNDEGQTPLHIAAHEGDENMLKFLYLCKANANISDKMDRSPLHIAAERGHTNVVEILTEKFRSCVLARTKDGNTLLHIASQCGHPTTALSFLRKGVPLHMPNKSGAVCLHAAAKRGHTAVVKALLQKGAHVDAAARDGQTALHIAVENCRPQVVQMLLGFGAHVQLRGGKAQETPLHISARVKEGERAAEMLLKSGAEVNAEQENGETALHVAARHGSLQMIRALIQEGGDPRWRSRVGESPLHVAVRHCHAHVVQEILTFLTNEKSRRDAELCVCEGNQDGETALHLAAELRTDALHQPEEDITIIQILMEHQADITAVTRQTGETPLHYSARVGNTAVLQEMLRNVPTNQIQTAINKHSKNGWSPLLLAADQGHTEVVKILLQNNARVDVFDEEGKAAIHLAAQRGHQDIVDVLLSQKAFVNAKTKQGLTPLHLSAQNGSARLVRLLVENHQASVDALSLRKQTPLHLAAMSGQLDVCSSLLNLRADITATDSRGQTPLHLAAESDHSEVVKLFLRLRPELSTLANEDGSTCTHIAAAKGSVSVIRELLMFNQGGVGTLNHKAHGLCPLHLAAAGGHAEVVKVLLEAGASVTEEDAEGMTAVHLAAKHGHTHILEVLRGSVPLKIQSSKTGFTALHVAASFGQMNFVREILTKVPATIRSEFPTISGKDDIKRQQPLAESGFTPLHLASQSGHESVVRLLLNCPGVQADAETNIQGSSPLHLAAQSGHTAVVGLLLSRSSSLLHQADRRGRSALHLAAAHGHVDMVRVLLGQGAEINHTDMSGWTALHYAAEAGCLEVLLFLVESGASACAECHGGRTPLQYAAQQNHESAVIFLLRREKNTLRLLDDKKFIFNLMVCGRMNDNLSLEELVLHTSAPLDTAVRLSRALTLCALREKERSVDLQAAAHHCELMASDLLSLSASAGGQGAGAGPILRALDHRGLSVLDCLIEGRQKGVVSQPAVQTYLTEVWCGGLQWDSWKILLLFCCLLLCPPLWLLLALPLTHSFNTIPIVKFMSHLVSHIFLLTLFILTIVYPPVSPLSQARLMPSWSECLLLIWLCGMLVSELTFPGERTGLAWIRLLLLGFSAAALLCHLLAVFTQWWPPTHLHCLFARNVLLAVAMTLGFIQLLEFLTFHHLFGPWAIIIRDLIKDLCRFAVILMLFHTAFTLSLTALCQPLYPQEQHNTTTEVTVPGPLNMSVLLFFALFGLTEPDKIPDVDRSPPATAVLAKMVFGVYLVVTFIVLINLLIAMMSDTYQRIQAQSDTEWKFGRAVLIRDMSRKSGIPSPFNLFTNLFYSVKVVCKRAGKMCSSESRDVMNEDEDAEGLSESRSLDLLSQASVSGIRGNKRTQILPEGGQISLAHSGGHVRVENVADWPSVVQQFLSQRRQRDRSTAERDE

The target in a further assay is T2, Mucolipin-3 (Homo sapiens, UniProt Q8TDD5).
T2 sequence (Q8TDD5 whole entry): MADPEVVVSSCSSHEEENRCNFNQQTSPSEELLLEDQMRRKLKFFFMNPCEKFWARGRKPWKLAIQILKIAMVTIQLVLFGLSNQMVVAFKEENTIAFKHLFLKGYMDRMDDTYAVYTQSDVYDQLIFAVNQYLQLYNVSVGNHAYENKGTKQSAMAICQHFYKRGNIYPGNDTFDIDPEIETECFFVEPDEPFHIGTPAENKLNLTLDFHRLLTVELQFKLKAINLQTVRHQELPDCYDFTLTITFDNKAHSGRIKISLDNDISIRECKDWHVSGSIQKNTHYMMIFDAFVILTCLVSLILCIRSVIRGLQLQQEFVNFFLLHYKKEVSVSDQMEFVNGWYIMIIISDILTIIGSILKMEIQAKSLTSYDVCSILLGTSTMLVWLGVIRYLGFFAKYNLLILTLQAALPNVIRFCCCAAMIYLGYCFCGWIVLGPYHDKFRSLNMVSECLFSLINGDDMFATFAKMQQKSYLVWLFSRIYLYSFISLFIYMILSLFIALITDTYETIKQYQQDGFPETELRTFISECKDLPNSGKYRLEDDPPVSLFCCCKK
Briefly: Dose response cell-based high-throughput screening assay for agonists of the transient receptor potential channel ML3 (TRPML3). [Related pubchem assays: 1526, 1424, 1448 ]. Type of assay: functional.

In assay [2] the target is ATP-dependent molecular chaperone HSP82 (Candida albicans (strain WO-1) (Yeast), UniProt C4YTQ8). The assay is described as follows: loss of DOC-induced GRE-beta-galactosidase reporter signal, dose response, Hsp90 inhibitor project, S. cerevisiae, luminescence (AID 2400).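 Also: beta-galactosidase luminescence from glucocorticoid response element reporter as proxy for Hsp90 function; inhibitor potency where signal loss means Hsp90 inhibition.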 Type of assay: functional, cell-based.
Chain of ATP-dependent molecular chaperone HSP82 (C4YTQ8 whole entry): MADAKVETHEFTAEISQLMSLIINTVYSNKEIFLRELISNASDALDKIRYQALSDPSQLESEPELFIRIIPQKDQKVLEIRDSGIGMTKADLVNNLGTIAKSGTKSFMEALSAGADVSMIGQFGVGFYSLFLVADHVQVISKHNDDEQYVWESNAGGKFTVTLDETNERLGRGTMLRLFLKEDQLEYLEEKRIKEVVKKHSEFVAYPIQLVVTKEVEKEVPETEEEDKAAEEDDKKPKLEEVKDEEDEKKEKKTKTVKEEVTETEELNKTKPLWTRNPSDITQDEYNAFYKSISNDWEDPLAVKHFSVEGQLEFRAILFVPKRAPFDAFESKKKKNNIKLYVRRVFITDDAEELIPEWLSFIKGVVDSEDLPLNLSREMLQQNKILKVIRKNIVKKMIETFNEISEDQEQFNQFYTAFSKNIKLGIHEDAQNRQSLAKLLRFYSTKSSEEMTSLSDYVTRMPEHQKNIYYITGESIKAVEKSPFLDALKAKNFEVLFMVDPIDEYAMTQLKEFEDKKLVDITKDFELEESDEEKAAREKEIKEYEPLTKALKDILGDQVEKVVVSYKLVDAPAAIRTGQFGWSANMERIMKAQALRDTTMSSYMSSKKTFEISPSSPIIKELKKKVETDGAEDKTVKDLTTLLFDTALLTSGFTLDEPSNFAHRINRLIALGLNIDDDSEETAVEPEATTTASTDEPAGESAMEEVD
A short description of assay [3]: C. albicans growth with fluconazole, confirmation, fluorescence, retest (AID 2467). Type of assay: functional, cell-based.
A short description of assay [4]: NIH-3T3 fibroblast cytotoxicity, dose response, cytotoxicity control, cell-based, fluorescence, Alamar Blue, secondary assay (AID 2327).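 Also: NIH-3T3 mouse fibroblasts cultured with fluconazole at 8 µg/mL.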 Type of assay: functional. On the technique in general: Resazurin is reduced to fluorescent resorufin, in cell work by metabolically active cells.
The target in assay [5] is Serine/threonine-protein phosphatase (Candida dubliniensis (strain CD36 / CBS 7987 / NCPF 3949 / NRRLY-17841) (Yeast), UniProt B9W6M3). Briefly: calcineurin pathway inhibitors in yeast reporter, dose response, S. cerevisiae, CDRE-lacZ, luminescence, secondary (AID 2388).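 Also: yeast reporter cells carrying a calcineurin-responsive lacZ construct stimulated with calcium chloride; luminescent beta-galactosidase reporter signal in whole cells rather than isolated phosphatase activity; potency for inhibition where a drop in reporter signal means calcineurin blockade.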 Type of assay: functional, cell-based.
Chain of Serine/threonine-protein phosphatase (B9W6M3 whole entry): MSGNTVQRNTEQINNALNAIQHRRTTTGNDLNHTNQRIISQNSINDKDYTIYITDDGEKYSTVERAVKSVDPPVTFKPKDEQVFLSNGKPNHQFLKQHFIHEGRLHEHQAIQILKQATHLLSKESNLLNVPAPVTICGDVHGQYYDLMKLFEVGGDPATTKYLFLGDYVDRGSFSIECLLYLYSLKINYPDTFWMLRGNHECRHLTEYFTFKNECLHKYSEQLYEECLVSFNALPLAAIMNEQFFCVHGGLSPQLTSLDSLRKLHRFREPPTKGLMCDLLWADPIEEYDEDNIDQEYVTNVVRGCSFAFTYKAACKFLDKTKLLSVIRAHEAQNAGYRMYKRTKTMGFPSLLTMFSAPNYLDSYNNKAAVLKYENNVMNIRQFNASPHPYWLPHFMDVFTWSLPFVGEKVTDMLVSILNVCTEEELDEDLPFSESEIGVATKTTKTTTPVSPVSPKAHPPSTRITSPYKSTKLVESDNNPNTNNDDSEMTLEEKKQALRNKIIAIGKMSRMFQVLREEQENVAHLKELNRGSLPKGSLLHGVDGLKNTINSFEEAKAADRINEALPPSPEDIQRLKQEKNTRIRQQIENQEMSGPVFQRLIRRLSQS
The target in assay [6] is Beta-2 adrenergic receptor (Homo sapiens, UniProt P07550). The assay is described as follows: beta2AR agonists driving receptor internalization, dose response, cell-based, FAP fluorogen, flow cytometry, cherry pick 1 (AID 588763). Type of assay: functional. In general terms: In flow cytometry, cells or beads pass a laser one at a time.
Chain of Beta-2 adrenergic receptor (P07550 whole entry): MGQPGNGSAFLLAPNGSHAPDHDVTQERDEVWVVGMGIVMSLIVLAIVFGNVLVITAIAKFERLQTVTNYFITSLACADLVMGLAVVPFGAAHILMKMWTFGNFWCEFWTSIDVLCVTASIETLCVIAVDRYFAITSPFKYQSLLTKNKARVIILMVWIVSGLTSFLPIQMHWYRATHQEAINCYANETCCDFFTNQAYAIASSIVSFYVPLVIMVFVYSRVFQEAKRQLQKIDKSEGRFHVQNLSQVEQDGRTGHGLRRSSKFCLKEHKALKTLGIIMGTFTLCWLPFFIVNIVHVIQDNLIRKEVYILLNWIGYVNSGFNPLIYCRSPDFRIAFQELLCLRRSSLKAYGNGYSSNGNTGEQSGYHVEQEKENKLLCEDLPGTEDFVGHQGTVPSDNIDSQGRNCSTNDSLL
The next assay relates to BJ. Briefly: cytotoxicity toward Ras-transformed BJeLR fibroblasts, dose response, cell-based, alamar blue fluorescence, cherrypicked samples (AID 2631).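 Also: confirmatory dose-response assay in RAS-dependent BJ fibroblasts engineered with TERT, LT and ST, with cytotoxicity read by fluorescence.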 Type of assay: functional. The following applies: Homo sapiens.
Assay [7] in a line: inhibitors of firefly luciferase expression or activity, dose response, H4 neuroglioma cells, luminescence (AID 1990). Type of assay: functional, cell-based.
A short description of assay [8]: inhibitors of SNCA 5'UTR-driven reporter translation, confirmation, H4 neuroglioma cells, luminescence (AID 1988). Type of assay: functional, cell-based.
A short description of assay [9]: Luminescence Cell-Based Dose Response HTS to Identify Inhibitors of 5'UTR Stem-Loop Driven Prion Protein mRNA Translation in H4 Neuroglioblastoma Cells. [Related pubchem assays: 1827 (Project Summary), 1813 (Primary HTS)]. Type of assay: functional.
In assay [10] the test system is Escherichia coli. Briefly: microbe, parasite or virus in culture.
A short description of assay [11]: cytotoxicity toward NIH3T3 fibroblasts, dose response, counter-screen, cell-based, ATP luminescence, mouse fibroblasts (AID 2010).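 Also: cells exposed to compound for about 90 hours before reading.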 Type of assay: functional.
The nature of assay [12]: inhibitors of intracellular T. cruzi replication, confirmation, NIH3T3 host cells, beta-gal luminescence (AID 2044).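 Also: intracellular parasites grown in NIH/3T3 mouse fibroblasts as host cells; luminescent beta-galactosidase reporter signal from transgenic T. cruzi replicating inside host cells; inhibitors lower the luminescence signal.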 Type of assay: functional, cell-based.
In assay [13] the target is 5-hydroxytryptamine receptor 5A (Homo sapiens, UniProt P47898). The assay is described as follows: Counterscreen for agonists of OPRM1-OPRD1 heterodimerization: luminescence-based cell-based high throughput dose response assay to identify agonists of 5-hydroxytryptamine (serotonin) 5A receptor (HTR5A). [Related pubchem assays (depositor defined):AID504326, AID504355, AID504692, AID504904, AID504905]. Type of assay: functional.
Chain of 5-hydroxytryptamine receptor 5A (P47898 whole entry): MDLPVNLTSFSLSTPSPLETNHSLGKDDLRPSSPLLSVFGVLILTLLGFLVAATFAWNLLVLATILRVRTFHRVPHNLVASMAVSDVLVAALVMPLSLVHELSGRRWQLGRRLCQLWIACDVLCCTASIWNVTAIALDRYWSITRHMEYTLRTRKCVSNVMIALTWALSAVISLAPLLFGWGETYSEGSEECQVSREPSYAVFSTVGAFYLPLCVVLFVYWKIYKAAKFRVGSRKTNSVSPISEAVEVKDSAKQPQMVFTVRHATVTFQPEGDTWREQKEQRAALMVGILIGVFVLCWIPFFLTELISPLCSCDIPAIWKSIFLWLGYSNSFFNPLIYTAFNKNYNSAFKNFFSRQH

Another assay deals with Mu-type opioid receptor (Homo sapiens, UniProt P35372). The assay is described as follows: Counterscreen for agonists of heterodimerization of the mu 1 (OPRM1) and delta 1 (OPRD1) opioid receptors: Luminescence-based cell-based high throughput dose response assay to identify agonists of OPRM1 homodimerization. Type of assay: functional.
Chain of Mu-type opioid receptor (P35372 whole entry): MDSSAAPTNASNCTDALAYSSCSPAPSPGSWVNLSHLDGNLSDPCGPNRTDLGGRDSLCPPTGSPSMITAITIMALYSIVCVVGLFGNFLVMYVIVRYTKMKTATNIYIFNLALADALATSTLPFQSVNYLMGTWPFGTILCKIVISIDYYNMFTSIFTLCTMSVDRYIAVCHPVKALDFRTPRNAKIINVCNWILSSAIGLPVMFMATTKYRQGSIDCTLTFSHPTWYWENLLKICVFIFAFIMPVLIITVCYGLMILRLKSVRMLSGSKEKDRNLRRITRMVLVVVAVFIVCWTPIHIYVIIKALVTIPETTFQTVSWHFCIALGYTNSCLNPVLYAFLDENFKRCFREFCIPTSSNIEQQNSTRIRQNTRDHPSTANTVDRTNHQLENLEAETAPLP
Assay [14] addresses Delta-type opioid receptor (Homo sapiens, UniProt P41143). The assay is described as follows: Counterscreen for agonists of heterodimerization of the mu 1 (OPRM1) and delta 1 (OPRD1) opioid receptors: Luminescence-based cell-based high throughput dose response assay to identify agonists of OPRD1 homodimerization. [Related pubchem assays (depositor defined):AID504326, AID504355, AID504692, AID504904, AID504905]. Type of assay: functional.

For assay [15], the target named is T3, CAAX prenyl protease 2 (Saccharomyces cerevisiae S288c, UniProt Q03530).
T3 sequence (Q03530 whole entry): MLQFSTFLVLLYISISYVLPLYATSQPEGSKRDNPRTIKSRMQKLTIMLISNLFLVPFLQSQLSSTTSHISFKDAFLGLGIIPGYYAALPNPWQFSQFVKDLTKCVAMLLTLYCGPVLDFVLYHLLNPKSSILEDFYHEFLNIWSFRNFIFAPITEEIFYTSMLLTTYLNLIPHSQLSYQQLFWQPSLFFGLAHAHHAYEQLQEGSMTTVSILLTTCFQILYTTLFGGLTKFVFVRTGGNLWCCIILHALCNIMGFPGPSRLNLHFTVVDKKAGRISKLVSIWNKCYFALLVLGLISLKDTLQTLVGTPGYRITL
Type of assay: biochemical.

For assay [16], the target named is CAAX prenyl protease 2 (Homo sapiens, UniProt Q9Y256). Briefly: human Rce1 protease inhibitors, dose response, biochemical, yeast membranes, quenched-peptide fluorescence, cherry-pick (AID 588849).
Chain of CAAX prenyl protease 2 (Homo sapiens, UniProt Q9Y256) (Q9Y256 whole entry): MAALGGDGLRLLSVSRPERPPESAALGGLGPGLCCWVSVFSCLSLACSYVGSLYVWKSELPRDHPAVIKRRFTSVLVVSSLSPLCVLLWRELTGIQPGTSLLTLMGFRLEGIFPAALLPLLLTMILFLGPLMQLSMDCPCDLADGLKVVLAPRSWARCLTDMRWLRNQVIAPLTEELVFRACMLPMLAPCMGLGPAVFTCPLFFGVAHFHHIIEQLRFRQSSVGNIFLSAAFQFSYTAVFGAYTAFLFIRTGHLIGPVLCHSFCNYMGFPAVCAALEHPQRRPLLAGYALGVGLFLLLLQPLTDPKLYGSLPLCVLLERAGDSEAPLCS
For a further assay, the target named is CAAX prenyl protease 1 (Saccharomyces cerevisiae S288c, UniProt P47154). The assay is described as follows: Ste24 protease inhibitors, dose response, biochemical, S. cerevisiae, plate reader, cherry-pick (AID 488815).
Assay [17] deals with FAD-linked sulfhydryl oxidase ALR (Homo sapiens, UniProt P55789). The assay is described as follows: inhibitors of human ALR sulfhydryl oxidase, dose response, biochemical, H2O2 detection, luminescence, cherry-pick (AID 493248).
Chain of FAD-linked sulfhydryl oxidase ALR (P55789 whole entry): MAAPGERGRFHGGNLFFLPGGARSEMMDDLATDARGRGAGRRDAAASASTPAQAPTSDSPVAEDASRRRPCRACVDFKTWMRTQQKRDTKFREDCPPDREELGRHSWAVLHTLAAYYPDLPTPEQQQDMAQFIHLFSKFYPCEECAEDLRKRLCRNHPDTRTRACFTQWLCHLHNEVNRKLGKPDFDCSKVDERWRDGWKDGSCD
Assay [18] deals with T4, Short transient receptor potential channel 4 (Mus musculus, UniProt Q9QUQ5).
T4 sequence (Q9QUQ5 whole entry): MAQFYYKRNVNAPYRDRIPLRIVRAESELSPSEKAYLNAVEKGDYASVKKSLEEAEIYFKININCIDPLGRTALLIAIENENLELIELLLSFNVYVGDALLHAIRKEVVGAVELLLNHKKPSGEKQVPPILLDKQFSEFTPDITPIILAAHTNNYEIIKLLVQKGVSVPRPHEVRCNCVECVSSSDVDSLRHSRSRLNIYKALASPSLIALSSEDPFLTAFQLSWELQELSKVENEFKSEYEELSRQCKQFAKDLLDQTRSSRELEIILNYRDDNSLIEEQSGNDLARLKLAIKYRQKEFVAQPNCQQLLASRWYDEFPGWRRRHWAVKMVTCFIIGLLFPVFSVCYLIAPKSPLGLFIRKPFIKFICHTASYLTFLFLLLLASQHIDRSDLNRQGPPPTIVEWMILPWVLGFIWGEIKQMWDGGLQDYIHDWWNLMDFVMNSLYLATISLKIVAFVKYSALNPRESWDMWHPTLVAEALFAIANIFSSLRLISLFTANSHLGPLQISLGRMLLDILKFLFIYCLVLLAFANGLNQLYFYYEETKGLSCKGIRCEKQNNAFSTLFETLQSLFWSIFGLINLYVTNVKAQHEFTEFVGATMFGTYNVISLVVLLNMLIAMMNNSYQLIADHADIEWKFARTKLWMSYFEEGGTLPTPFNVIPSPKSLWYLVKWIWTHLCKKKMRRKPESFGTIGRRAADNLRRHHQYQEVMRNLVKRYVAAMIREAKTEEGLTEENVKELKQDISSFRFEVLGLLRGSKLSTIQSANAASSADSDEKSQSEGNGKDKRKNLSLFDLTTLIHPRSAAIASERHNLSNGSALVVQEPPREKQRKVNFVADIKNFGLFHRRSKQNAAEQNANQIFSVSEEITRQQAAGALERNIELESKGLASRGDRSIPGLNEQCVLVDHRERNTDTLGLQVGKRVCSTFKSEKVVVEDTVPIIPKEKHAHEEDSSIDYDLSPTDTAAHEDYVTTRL
The assay is described as follows: mouse TRPC4 channel activators, dose response, cell-based, HEK293 TRPC4/mu-opioid, Fluo-4 calcium (AID 434937). Type of assay: functional.

Assay [19] relates to Escherichia coli. The assay is described as follows: microbe, parasite or virus in culture. The source holds these as a separate data set.

As usually defined, the IC50 is the concentration at which inhibition is half-maximal. By EC50 is commonly meant the midpoint of the concentration-response curve. In general, AC50 refers to the concentration giving half of the maximal activity seen.

Activity calls are given as the source filed them.

Chain of Delta-type opioid receptor (P41143 whole entry): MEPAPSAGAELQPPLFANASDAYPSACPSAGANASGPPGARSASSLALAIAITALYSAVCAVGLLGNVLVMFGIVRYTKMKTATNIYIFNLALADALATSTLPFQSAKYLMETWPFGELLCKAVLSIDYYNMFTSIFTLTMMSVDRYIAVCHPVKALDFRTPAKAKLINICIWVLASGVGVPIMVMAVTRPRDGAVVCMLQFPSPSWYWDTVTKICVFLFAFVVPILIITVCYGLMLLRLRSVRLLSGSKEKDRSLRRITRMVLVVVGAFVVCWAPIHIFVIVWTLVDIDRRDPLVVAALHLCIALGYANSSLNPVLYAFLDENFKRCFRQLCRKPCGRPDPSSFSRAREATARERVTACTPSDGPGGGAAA

Regarding `COc1cc(C(=O)NC2CCN(C)CC2)ccc1Nc1ncc2c(n1)N(Cc1ccccc1)CCC(=O)N2C`, the IC50 (with HEK293; in assay [1]) was > 67.5 µM (inactive) in each case.

For `Cc1ccc(S(=O)(=O)N(C)c2ccc(OCC(=O)Nc3nnc(C4CC4)s3)cc2)cc1`, the concentration giving a half-maximal response (EC50) was > 29.9 µM (not active) on Ion channel NompC; 4.38 µM (active) at Mucolipin-3; > 150 µM (inactive) in assay [2]; 3.05 µM (active) in assay [3]; > 150 µM (inactive) in assay [4]; > 180 µM (inactive) in [5].

With `NC(=O)CC(NC(=O)c1ccccc1)c1ccc(NCCCN2CCCC2=O)c([N+](=O)[O-])c1` (configuration not stated), the EC50 in [6] was 1.4 µM (active).

For the compound `COc1cccc(Cn2c(-c3nonc3N)nc3ccccc32)c1`, the EC50 in the assay with BJ was 455 nM (active); in assay [7] it was 9.54 µM (active); in assay [8], 2.69 µM (active); in [9], 24.7 µM (active).

Consider `O=C1CN2C(=Nc3ccc(Br)cc3C2c2ccccc2)CCN1` (configuration not stated), for which the AC50 with Escherichia coli [10] is 81.5 µM (active).

As for `Cc1cc(Cl)c2oc(C(=O)N3CCN(c4ccncc4)CC3)c(C)c2c1`, the EC50 is 7.17 µM (active) in assay [11], 86.2 µM (inactive) in [6] and 1.28 µM (active) in assay [12].

Regarding `Clc1ccccc1Nc1nc(-c2cccnc2)cs1`, the IC50 (in the assay with HEK293; in assay [1]) was > 67.5 µM (inactive) throughout.

On to `CCOC(=O)c1c(C)[nH]c(C(=O)OCC(O)=C(C#N)c2nc3ccccc3[nH]2)c1C`, for which the EC50 (in assay [13]; at Mu-type opioid receptor; in assay [14]) was > 92.5 µM (inactive) each time.

Take `COc1ccc(/C=N/NC(=O)c2[nH]c3ccc(C)cc3c2-c2ccccc2)c(C(=O)O)c1OC`: the AC50 was 5.21 µM (active) on CAAX prenyl protease 2 [15], 3.14 µM (active) on CAAX prenyl protease 2 [16], 1.76 µM (active) at CAAX prenyl protease 1 and 3.71 µM (active) in assay [17].

As to `COCC1CCN(Cc2cn(-c3ccccc3F)nc2-c2cc(C)sc2C)CC1`, the EC50 in assay [13] was > 92.5 µM (inactive); at Mu-type opioid receptor, > 92.5 µM (inactive); in assay [14], > 92.5 µM (inactive); in assay [18], 1.88 µM (active).

As to `Cc1nc(NS(=O)(=O)c2ccccc2)sc1NC(=O)Nc1ccc(Cl)cc1`, the AC50 was 27 µM (active) in the assay on Escherichia coli [19] and > 380 µM (inactive) in the assay on Escherichia coli [10].
